Assays:
[1] = target: T1, Dihydrofolate reductase (Mus musculus) (UniProt P00375); experiment: Inhibition of dihydrofolate reductase in mouse L1210R cells; assay type: cell-based
T1 sequence (whole entry): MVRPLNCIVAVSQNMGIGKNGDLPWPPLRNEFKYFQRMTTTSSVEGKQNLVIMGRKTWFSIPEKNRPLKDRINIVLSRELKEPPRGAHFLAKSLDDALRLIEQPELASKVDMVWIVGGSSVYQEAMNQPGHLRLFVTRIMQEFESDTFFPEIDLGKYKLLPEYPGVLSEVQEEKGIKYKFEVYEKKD

[2] = target: T2, Dihydrofolate reductase (Homo sapiens) (UniProt P00374)
T2 sequence (whole entry): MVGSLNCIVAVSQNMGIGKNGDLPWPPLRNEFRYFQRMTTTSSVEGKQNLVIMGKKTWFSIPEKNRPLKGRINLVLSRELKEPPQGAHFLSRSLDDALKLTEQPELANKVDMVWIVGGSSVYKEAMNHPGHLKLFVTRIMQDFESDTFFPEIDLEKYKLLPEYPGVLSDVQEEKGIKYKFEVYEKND
Description: Inhibition of dihydrofolate reductase in human acute lymphocytic leukemia cells

[3] = target: Thymidylate synthase (Mus musculus) (UniProt P07607); experiment: Inhibition of thymidylate synthetase in mouse L1210S cells; assay type: cell-based
Chain of Thymidylate synthase (Mus musculus) (P07607 whole entry, looked up): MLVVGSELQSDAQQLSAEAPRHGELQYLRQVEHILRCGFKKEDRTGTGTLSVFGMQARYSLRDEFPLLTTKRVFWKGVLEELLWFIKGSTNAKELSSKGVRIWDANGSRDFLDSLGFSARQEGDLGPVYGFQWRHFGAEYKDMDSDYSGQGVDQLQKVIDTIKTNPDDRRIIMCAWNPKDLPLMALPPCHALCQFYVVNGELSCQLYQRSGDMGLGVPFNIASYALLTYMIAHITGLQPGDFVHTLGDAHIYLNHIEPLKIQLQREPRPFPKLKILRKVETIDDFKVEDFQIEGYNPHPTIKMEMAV

[4] = target: T3, Thymidylate synthase (Lactobacillus casei) (UniProt P00469); experiment: Inhibition of thymidylate synthetase in Lactobacillus casei; conditions: Lacticaseibacillus casei
T3 sequence (whole entry): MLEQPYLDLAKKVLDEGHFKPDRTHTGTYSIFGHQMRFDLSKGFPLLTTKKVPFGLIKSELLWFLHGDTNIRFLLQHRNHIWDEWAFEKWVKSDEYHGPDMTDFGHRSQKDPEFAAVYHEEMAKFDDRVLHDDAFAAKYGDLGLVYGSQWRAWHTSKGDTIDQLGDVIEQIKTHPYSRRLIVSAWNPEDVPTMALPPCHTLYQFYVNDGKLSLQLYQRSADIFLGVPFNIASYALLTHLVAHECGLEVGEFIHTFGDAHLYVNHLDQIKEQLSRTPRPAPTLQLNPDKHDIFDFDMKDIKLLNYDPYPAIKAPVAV

| SMILES | log(1/I50) [1] | log(1/I50) [2] | log(1/I50) [3] | log(1/I50) [4] |
| --- | --- | --- | --- | --- |
| Nc1nc(N)c2cc(CNc3ccc(C(=O)NC(CC(=O)O)CC(=O)O)cc3)ccc2n1 | 8.14 | 8.25 | – | – |
| Cc1c(CNc2ccc(C(=O)NC(CC(=O)O)CC(=O)O)cc2)ccc2nc(N)nc(N)c12 | 9.15 | 8.17 | – | – |
| Nc1nc(N)c2cc(CNc3ccc(C(=O)NC(CC(=O)O)C(=O)O)cc3)ccc2n1 (stereo not drawn) | 8.76 | 8.94 | – | – |
| CCOC(=O)c1ccc(CNc2ccc3nc(N)nc(O)c3c2C)cc1 | – | – | 4 | 4.05 |
| Nc1nc(N)c2cc(CNc3ccc(Cl)c(C(=O)NC(CC(=O)O)C(=O)O)c3)ccc2n1 (stereo not drawn) | 8.37 | 7.92 | – | – |
| CN(Cc1ccc2nc(N)nc(O)c2c1)c1ccc(C(=O)NC(CCC(=O)O)C(=O)O)cc1 (stereo not drawn) | – | 6.22 | 7.3 | 6.4 |
| Nc1nc(N)c2cc(CN(N=O)c3ccc(Cl)c(Cl)c3)ccc2n1 | 8 | 8 | – | – |
| CCOC(=O)CCC(NC(=O)c1ccc(NCc2ccc3nc(N)nc(N)c3c2C)cc1)C(=O)OCC (stereo not drawn) | – | 8.49 | 5.12 | 4.3 |
| Nc1nc(=O)c2cc(NCc3ccc(C(=O)NC(CCC(=O)O)C(=O)O)cc3)ccc2[nH]1 (stereo not drawn) | – | 5.78 | 6.3 | 5 |
| Cc1c(CNc2ccc(C(=O)NC(CCC(=O)O)C(=O)O)cc2)ccc2nc(N)nc(O)c12 (stereo not drawn) | – | – | 7 | 4.9 |
| Cc1c(NCc2ccc(C(=O)NC(CCC(=O)O)C(=O)O)cc2)ccc2nc(N)nc(N)c12 (stereo not drawn) | – | 9.07 | 6.6 | 5.6 |
| Nc1nc(N)c2cc(CNc3cc(C(=O)NC(CC(=O)O)C(=O)O)ccc3Cl)ccc2n1 (stereo not drawn) | 8.54 | 8.52 | – | – |
| Nc1nc(N)c2cc(CNc3ccc(C(=O)NC(C(=O)O)C(=O)O)cc3)ccc2n1 | 8.81 | 9.1 | – | – |
| Cc1c(CNc2ccc(Cl)c(C(=O)NC(CCC(=O)O)C(=O)O)c2)ccc2nc(N)nc(N)c12 (stereo not drawn) | 8.68 | 8.52 | – | – |
| Nc1nc(N)c2cc(CN(C=O)c3ccc(C(=O)NC(CCC(=O)O)C(=O)O)cc3)ccc2n1 (stereo not drawn) | – | 8.22 | – | – |
| Nc1nc(N)c2c(Cl)c(CNc3ccc(Cl)c(Cl)c3)ccc2n1 | 8.7 | 8.96 | – | – |
| Nc1nc(N)c2cc(NCc3ccc(C(=O)NC(CCC(=O)O)C(=O)O)cc3)ccc2n1 (stereo not drawn) | – | 8 | 6.6 | 5.3 |
| Cc1c(CNc2cccc(Br)c2)ccc2nc(N)nc(N)c12 | 8.82 | 8.82 | – | – |
| Cc1c(CNc2ccc(Cl)c(Cl)c2)ccc2nc(N)nc(N)c12 | – | 8.59 | – | – |
| Nc1nc(O)c2cc(NCc3ccc(C(=O)O)cc3)ccc2n1 | – | – | 4 | 4 |
| Nc1nc(O)c2cc(COc3ccc(C(=O)NC(CCC(=O)O)C(=O)O)cc3)ccc2n1 (stereo not drawn) | – | – | 5 | 4 |
| Cc1c(CN(N=O)c2ccc(Cl)c(Cl)c2)ccc2nc(N)nc(N)c12 | – | 8 | – | – |

| SMILES | log(1/I50) [1] | log(1/I50) [2] | log(1/I50) [3] | log(1/I50) [4] |
| --- | --- | --- | --- | --- |
| CCOC(=O)c1ccc(CNc2ccc3nc(N)nc(O)c3c2)cc1 | – | 5.49 | 4 | 4.3 |
| CN(Cc1ccc2nc(N)nc(S)c2c1)c1ccc(C(=O)O)cc1 | – | – | 5.12 | 4.12 |
| Nc1nc(N)c2cc(CNc3ccc(Cl)c(C(=O)NC(CCC(=O)O)C(=O)O)c3)ccc2n1 (stereo not drawn) | 8.03 | 6.7 | – | – |
| CN(Cc1ccc2nc(N)nc(N)c2c1)c1ccc(C(=O)NC(CC(=O)O)C(=O)O)cc1 (stereo not drawn) | 8.66 | 8.69 | – | – |
| CN(Cc1ccc2nc(N)nc(N)c2c1)c1ccc(Cl)c(Cl)c1 | – | 8.3 | – | – |
| CCOC(=O)CCC(NC(=O)c1ccc(SCc2ccc3nc(N)nc(O)c3c2)cc1)C(=O)OCC (stereo not drawn) | – | 5.05 | 7 | 5.1 |
| COc1cc(NCc2ccc3nc(N)nc(N)c3c2)cc(OC)c1OC | – | 8.22 | – | – |
| Nc1nc(N)c2cc(CNc3ccc(Cl)c(Cl)c3)ccc2n1 | 8.05 | 8.42 | – | – |
| Cc1c(CNc2ccc(C(=O)NC(CCC(=O)O)C(=O)O)cc2)ccc2nc(N)nc(N)c12 (stereo not drawn) | – | 8.78 | – | – |
| Nc1nc(N)c2cc(CNc3ccc(Cl)cc3)ccc2n1 | 8.3 | 8.22 | – | – |
| CCOC(=O)CCC(NC(=O)c1ccc(CNc2ccc3nc(N)nc(N)c3c2)cc1)C(=O)OCC (stereo not drawn) | – | 7.66 | 6 | 5 |
| CCOC(=O)c1ccc(CNc2ccc3nc(N)nc(N)c3c2C)cc1 | 8 | – | 4 | 5 |
| Nc1nc(N)c2cc(Oc3ccc(CNc4ccc(C(=O)NC(CCC(=O)O)C(=O)O)cc4)cc3)ccc2n1 (stereo not drawn) | 7.71 | 7.8 | – | – |
| Nc1nc(N)c2c(Cl)c(CNc3ccc(C(=O)NC(CC(=O)O)C(=O)O)cc3)ccc2n1 (stereo not drawn) | 9.21 | 9.35 | – | – |
| CCOC(=O)c1ccc(NCc2ccc3nc(N)nc(O)c3c2)cc1 | – | 4.66 | 4 | 4 |
| Nc1nc(S)c2cc(CNc3ccc(C(=O)O)cc3)ccc2n1 | – | – | 4 | 4 |
| COc1cc(NCc2ccc3nc(N)nc(N)c3c2C)cc(OC)c1OC | 8.92 | 8.89 | – | – |
| CCOC(=O)CCC(NC(=O)c1ccc(NCc2ccc3nc(N)nc(N)c3c2)cc1)C(=O)OCC (stereo not drawn) | – | – | 4 | 4 |
| Cc1c(NCc2ccc(C(=O)NC(CCC(=O)O)C(=O)O)cc2)ccc2nc(N)nc(O)c12 (stereo not drawn) | – | 6.12 | 5.12 | 4.3 |
| Nc1nc(N)c2cc(CN(C=O)c3ccc(C(=O)O)cc3)ccc2n1 | – | – | 4 | 4.12 |
| CCOC(=O)c1ccc(NCc2ccc3nc(N)nc(N)c3c2)cc1 | – | – | 4 | 4 |
| CCOC(=O)CCC(NC(=O)c1ccc(CNc2ccc3nc(N)nc(O)c3c2)cc1)C(=O)OCC (stereo not drawn) | – | 5.65 | 6 | 4.46 |

| SMILES | log(1/I50) [1] | log(1/I50) [2] | log(1/I50) [3] | log(1/I50) [4] |
| --- | --- | --- | --- | --- |
| Nc1nc(=O)c2cc(CSc3ccc(C(=O)NC(CCC(=O)O)C(=O)O)cc3)ccc2[nH]1 (stereo not drawn) | – | 4.9 | 6 | 5.6 |
| CCOC(=O)CCC(NC(=O)c1ccc(NCc2ccc3nc(N)nc(O)c3c2)cc1)C(=O)OCC (stereo not drawn) | – | – | 6.6 | 4.15 |
| CCOC(=O)c1ccc(NCc2ccc3nc(N)nc(N)c3c2C)cc1 | – | – | 4 | 4 |
| Nc1nc(N)c2cc(CNc3ccc(C(=O)NC(CC(=O)O)C(=O)O)cc3Cl)ccc2n1 (stereo not drawn) | 9.13 | 8.82 | – | – |
| Nc1nc(N)c2cc(NCc3ccc(C(=O)NC(CC(=O)O)C(=O)O)cc3)ccc2n1 (stereo not drawn) | 7.36 | – | – | – |
| Nc1nc(N)c2cc(CNc3ccc(C(=O)NC(CCC(=O)O)C(=O)O)cc3)ccc2n1 (stereo not drawn) | – | – | 5 | 4 |
| Nc1nc(N)c2cc(CNc3cccc(Br)c3)ccc2n1 | 8.64 | 8.66 | – | – |
| Nc1nc(N)c2c(Cl)c(CNc3ccc(C(=O)NC(CCC(=O)O)C(=O)O)cc3)ccc2n1 (stereo not drawn) | 9.05 | 9.11 | – | – |
| Nc1nc(N)c2cc(CNc3cccc(Cl)c3)ccc2n1 | 8 | 8 | – | – |
| Nc1nc(N)c2cc(Oc3ccc(CNc4ccc(C(=O)NC(CC(=O)O)C(=O)O)cc4)cc3)ccc2n1 (stereo not drawn) | 7.67 | 7.77 | – | – |
| CC(=O)N(Cc1ccc2nc(N)nc(N)c2c1)c1ccc(Cl)c(Cl)c1 | – | 7.3 | – | – |
| CCOC(=O)CCC(NC(=O)c1ccc(CNc2ccc3nc(N)nc(O)c3c2C)cc1)C(=O)OCC (stereo not drawn) | – | 5.1 | 5.12 | 4 |
| NC(=O)CCC(NC(=O)c1ccc(NCc2ccc3nc(N)nc(N)c3c2)cc1)C(=O)O (stereo not drawn) | 9.66 | 10.1 | – | – |
| Cc1c(CNc2ccc(C(=O)NC(CC(=O)O)C(=O)O)cc2)ccc2nc(N)nc(N)c12 (stereo not drawn) | 8.87 | 8.9 | 6 | 5 |
| CN(Cc1ccc2nc(N)nc(O)c2c1)c1ccc(C(=O)O)cc1 | – | – | 4.7 | 4.12 |
| Nc1nc(O)c2cc(CNc3ccc(C(=O)O)cc3)ccc2n1 | – | – | 4 | 4 |
| Nc1nc(O)c2cc(CCc3ccc(C(=O)NC(CCC(=O)O)C(=O)O)cc3)ccc2n1 (stereo not drawn) | – | 6.31 | 5.3 | 5.12 |
| CCOC(=O)CCC(NC(=O)c1ccc(N(C)Cc2ccc3nc(N)nc(O)c3c2)cc1)C(=O)OCC (stereo not drawn) | – | – | 5.12 | 4.12 |
| Nc1nc(N)c2cc(CNc3ccc(Cl)c(C(F)(F)F)c3)ccc2n1 | – | 8.4 | – | – |
| Nc1nc(O)c2cc(CN(C=O)c3ccc(C(=O)NC(CCC(=O)O)C(=O)O)cc3)ccc2n1 (stereo not drawn) | – | – | 7 | 5.52 |
| Cc1c(NCc2ccc(C(=O)O)cc2)ccc2nc(N)nc(O)c12 | – | – | 4.05 | 4.05 |

Reference: ChEMBL document CHEMBL3227974, “Multivariate analysis and quantitative structure-activity relationships. Inhibition of dihydrofolate reductase and thymidylate synthetase by quinazolines” (J Med Chem, 1979)
